According to patent US9975881B2, “Compound” (ASTRAZENECA AB, priority 2011, dated 2018):

Assays:
plasma proteins = assay: Human plasma protein binding (hPPB), equilibrium dialysis; assay type: in vitro ADME; details: human plasma pH 7.4, 37° C., 18 hours, 10 μM
Description: Measurement of Human Plasma Protein Binding (hPPB)
The extent of binding of a drug to plasma proteins is a crucial factor in determining in vivo potency and pharmacokinetics. The method used for determining the extent of plasma protein binding involves equilibrium dialysis of the compound between plasma and buffer at 37° C. The concentrations of compound in the plasma and buffer are then determined using high pressure liquid chromatography (HPLC) with mass spectroscopy (MS) detection. The dialysis method involves the use of mixtures of up to 10 compounds simultaneously. At the concentrations used in the assay, there is no significant difference in the results when compounds are run singly or in mixtures.
Membranes (molecular weight cut-off 5000) were first prepared by soaking in the dialysis buffer for a minimum of 1 hour. […]
The samples and standards were then analysed using HPLC with MS detection, which allows deconvolution of the mixtures of compounds. […]
The chromatograms were processed using MassLynx software that automatically calculates a calibration curve for each compound in a mixture and then interpolates the concentrations of buffer and plasma samples. […] The percentage bound was calculated from the MassLynx data using the following equation: […]
The % free (100-% bound) for each compound was calculated from the concentration data, and then recorded.

[1] = Human hepatic intrinsic clearance (CLint) from human hepatocyte incubations; assay type: in vitro ADME; details: cryopreserved human hepatocytes in suspension, 1×10^6 cells/ml, 1 μM compound, no HSA, pH 7.4
Source text: Measurement of Human Hepatic Intrinsic Clearance (CLint)
For the majority of drugs, a large component of their plasma clearance is contributed by hepatic metabolism. Intrinsic clearance (CLint) is a measure of the potential of a compound to undergo metabolism and can be related to hepatic clearance in vivo from a consideration of plasma protein binding and liver blood flow. Therefore, CLint may be used as a key parameter in predicting the half-life of a compound in humans. […]
An aliquot of cell suspension (0.2 mL) was diluted with 0.2 ml protein-free suspension buffer. […] The cells were then counted (central square only) using an inverted microscope, viable cells being able to exclude the dye and non-viable cells being stained. The percentage of viable cells in the preparation was calculated thus:
The concentration of viable cells was calculated: Viable cells ml^−1=Viable cell count×10^4×3×50 […]
At appropriate time points (e.g. 5, 15, 30, 45, 60, 75, 90 and 120 min), aliquots (40 μl) were taken out of the incubation mix and added to 3 volumes of methanol to terminate the reactions and denature the hepatocytes. […] The supernatants were transferred to micro titre plates and analysed by HPLC-MSMS using the following method as a suitable starting point: […]

human plasma protein binding (% free) (plasma proteins): 0.11 (±0.05) % free
hepatocyte CLint at 1 μM [1]: 2.9 µL/min/1e6 cells
Structure (SMILES): CC1CN(S(=O)(=O)Nc2cc(O[C@H](C)[C@@H](O)CO)nc(SCc3ccc(F)cc3)n2)C1 [Example 1, N-(6-((2R,3S)-3,4-Dihydroxybutan-2-yloxy)-2-(4-fluorobenzylthio)pyrimidin-4-yl)-3-methylazetidine-1-sulfonamide]
